Experimental findings from patent publication US6610248B1, “Disinfectants” (Lonza AG, priority 1999, dated 2003) are described below.

Data set [1] is described as follows: Determination of foaming (shaken mixing cylinder, foam volume read off). It counts as physicochemical. The conditions noted are these: 250 ppm in demineralized water, 20° C. As to the method: A 250 ml mixing cylinder was filled with 100 ml of solution. After any foam formed in the course of this had disappeared, the sealed cylinder was shaken vigorously vertically for 15 s (approximately 15×) and then placed on a flat support. The volume of the resultant foam was read off at regular time intervals.

Data set [2] has as its system Escherichia coli ATCC 10536. The data set is described as follows: Quantitative suspension test EN 1276. The class given is cell-based. The conditions noted are these: contact time 5 min, water hardness 300 mg/kg CaCO3, 20° C. How it is done:
(§1) As specified by standard EN 1276, the efficacy of N,N-bis (3-aminopropyl)octylamine (according to the invention) and N,N-bis (3-aminopropyl)dodecylamine (comparison) was determined in the presence of albumin for various test microorganisms. [table]

Data set [3] deals with Pseudomonas aeruginosa ATCC 15442. The data set can be described thus: Quantitative suspension test EN 1276. The class given is cell-based. The conditions noted are these: contact time 5 min, water hardness 300 mg/kg CaCO3, 20° C. How it is done:
as §1

For data set [4], the system named is Enterococcus hirae ATCC 8043. The data set can be described thus: Quantitative suspension test EN 1276. It counts as cell-based. The conditions noted are these: contact time 5 min, water hardness 300 mg/kg CaCO3, 20° C. How it is done:
as §1

Data set [5] relates to Staphylococcus aureus ATCC 6538. The data set can be described thus: Quantitative suspension test EN 1276. It counts as cell-based. The conditions noted are these: contact time 5 min, water hardness 300 mg/kg CaCO3, 20° C. As to the method:
as §1

For data set [6], the system named is Mycobacterium terrae ATCC 15755. The data set can be described thus: Quantitative suspension test using Mycobacterium terrae (Hygiene & Medizin 1997 method). It counts as cell-based. The conditions noted are these: 0.3% active compound, 20° C., contact time 15 min. As to the method: Using the method described in Hygiene & Medizin 1997, 22, pp. 278-283, the activity of N,N-bis(3-amino-propyl)octylamine against Mycobacterium terrae ATCC 15755 was determined under differing organic loads. The concentration of active compound was in each case 0.3%, the temperature 20° C. and the contact time 15 min. The common logarithmic reduction in bacterial count was determined each time.

Regarding `CCCCCCCCCCCCN(CCCN)CCCN` [N,N-bis(3-aminopropyl)dodecylamine, reference compound], the “foam volume after 10 s” value in data set [1] came out at 140 mL. For the same compound, the “foam volume after 60 s” value in data set [1] came to 120 mL. In addition, the “concentration for log. reduction >5” value in data set [2] (0.03% albumin) worked out at 0.025%; in data set [2] (0.3% albumin), 0.025%; in data set [3] (0.03% albumin) it was 0.025%; in data set [3] (0.3% albumin), 0.50%; in data set [4] (0.03% albumin), 0.05%; in data set [4] (0.3% albumin), 0.05%. The “concentration for log. reduction >5” value was 0.05% in data set [5] (0.03% albumin) and 0.10% in data set [5] (0.3% albumin).
Turning to `CCCCCCCCN(CCCN)CCCN` [N,N-bis(3-aminopropyl)octylamine], the “foam volume after 10 s” value in data set [1] stood at 20 mL. In addition, in data set [1], the “foam volume after 60 s” value was “virtually completely disappeared”. For the same compound, the “foam volume after a further 10 s” value in data set [1] (relative to volume at 10 s) is “decreased to half”. Also, the “concentration for log. reduction >5” value in data set [2] (0.03% albumin) is 0.05%; in data set [2] (0.3% albumin), 0.05%; in data set [3] (0.03% albumin) it was 0.05%; in data set [3] (0.3% albumin), 0.10%; in data set [4] (0.03% albumin), 0.10%; in data set [4] (0.3% albumin), 0.05%. Moreover, the “concentration for log. reduction >5” value in data set [5] (0.03% albumin) and in data set [5] (0.3% albumin) was 0.10% in each case. Further, the “Log reduction in bacterial count” value in data set [6] (load: 0.3% albumin) is on record as 4.09; in data set [6] (load: 0.5% sheep's blood), 4.48; in data set [6] (load: none) it was 4.33.
